{"source": "paper PMC9879991", "about": "“Biomolecular condensates formed by designer minimalistic peptides” (Nature Communications, 2023)", "key": {"[1]": {"experiment": "Phase diagram in tris buffer: pH at which turbidity (LLPS) appears vs peptide concentration", "type": "physicochemical", "settings": "0.2 M NaCl, room temperature; for pH at which turbidity (LLPS) appears: 20 mM tris, turbidity A500", "description": "We sought to design a library of LLPS-promoting peptide building blocks which form synthetic biomolecular condensates with tunable chemical composition and physical properties. We hypothesized that minimalistic variants of protein low complexity domains (LCDs) will self-assemble into liquid droplets through LLPS. Specifically, we envisioned that in order to keep the sequence length relatively short, the peptide composition should include high content of aromatic and basic amino acids that can interact through π–π or cation–π interactions. To test this hypothesis, we designed a primary sequence that contains various LLPS-promoting motifs. Inspired by LCDs of ribonucleoproteins (RNPs) and IDPs that are rich in arginine-glycine (RG) dyad or RGG triad repeats, we incorporated three repeats of an RG dyad (Fig. 1a), where glycine (Gly) provides flexibility and arginine (Arg) promotes electrostatic interactions with the terminal carboxylic group, cation- π or π interactions with aromatic amino acids (Fig. 1a). While both lysine (Lys) and Arg have basic side chain groups, the guanidine group of Arg delocalizes the charge due to the π bonded system and thus can promote more versatile binding modes compared to Lys, through cation–π and π–π interactions. Thus, considering that the Arg side chain can interact with side chains of aromatic amino acids, we incorporated tryptophan (Trp) and tyrosine (Tyr) into the peptide sequence at a 1:1 stoichiometry with Arg, with aromatic amino acids positioned at both ends of the sequence to enhance π–π stacking interactions. Finally, we considered the elastin-like polypeptide (ELP) repeating motif VPGXG. This pentapeptide sequence is a common LLPS-promoting motif used in engineered ordered/disordered polypeptides, where X can be any amino acid except proline (Pro), and a hydrophobic amino acid at this position promotes coacervation[39],[40]. […] Building on these previous findings, we incorporated the sequence WPGVG, thus obtaining the 14-mer peptide WGRGRGRGWPGVGY termed WGR-1 (Figs. 1a, 2a). WGR-1 forms droplets by self-coacervation at neutral pH in the presence of 0.2 M NaCl, which reduces the electrostatic repulsion of the basic peptide (Fig. 1b). We created a phase diagram of WGR-1 as a function of pH and peptide concentration in tris buffer by gradually increasing the pH and monitoring LLPS, as indicated by appearance of sample turbidity (Fig. 2b), where all experiments performed at room temperature. As expected, increasing peptide concentration decreased the pH in which visible turbidity and droplets are observed, where the critical LLPS concentration is 8 mM. To confirm that the turbidity is a result of LLPS and droplet formation rather than aggregation, we used bright field laser scanning confocal microscopy (Fig. 2c).\nFig. 2 Peptide sequence controls LLPS propensity and droplet formation. a Table of the designed peptide sequences. b Phase diagram of the peptides as a function of peptide concentration and pH, in tris buffer with 0.2 M NaCl, at room temperature. […] Source data are provided as a Source Data file. c Confocal microscopy bright field images of peptide liquid droplets formed at a concentration of 20 mM in Tris buffer at pH 8 with 0.2 M NaCl. Scale bars = 20 μm. Inset: macroscopic images of the peptide solutions. ‘Source data are provided as a Source Data file. TEXT PRINTED IN THE PICTURE: (b) WGR-1: LLPS | (b) WGR-2: No LLPS | (b) WGR-3: LLPS | (b) WGR-4: LLPS | (b) WGR-5: LLPS | (b) WGK: No LLPS DOUBTS OF THE COPYIST ABOUT THIS PICTURE: Panel b: \"LLPS\" / \"No LLPS\" are class labels printed inside the phase diagrams, with no numbers. In the diagrams with a curve, \"LLPS\" marks a region of the plot. / Panel c: the handwritten labels on the vials in the insets cannot be read with certainty and were left out. […]"}, "[2]": {"experiment": "Turbidity analysis of WGR-1 with and without 0.5% FITC-labeled peptide", "type": "physicochemical", "settings": "Tris buffer pH 8, 0.2 M NaCl, mean of n=3"}, "[3]": {"experiment": "Encapsulation efficiency of peptide droplets, fluorescein payload", "type": "physicochemical", "settings": "C initial 10 µM, 20 mM peptide; for %EE: 20 mM Tris + 0.2 M NaCl pH 8, 15,000 g 10 min, supernatant absorbance 490 nm", "description": "Next, we studied how peptide composition affects the encapsulation efficiency of the droplets by using GFP, rhodamine B, and fluorescein as fluorescent payload model systems (Fig. 4). We analyzed the encapsulation efficiency of the fluorescent payloads by using both confocal microscopy and absorbance measurements of the payloads in the dilute vs. the condensed phase (Fig. 4a–c). […] WGR-1 has the highest EE of fluorescein. In addition to π-π interactions, WGR-1 might form hydrogen bonding with the hydroxyl groups or electrostatic interactions with the deprotonated carboxylic acid of the dye.\nStock solutions (1 mM) of the fluorescein and rhodamine B dye molecules were prepared in 20 mM Tris buffer. Coacervate solutions of 20 mM peptide were prepared in 20 mM Tris + 0.2 M NaCl at pH 8. From these, a volume of 148.5 µl was mixed with 1.5 µl of dye solution in a 1.5 ml Eppendorf tube and pipetted. After 10 min the samples were centrifuged at 15,000 × g for 10 min. A volume of 120 μl from the supernatant was collected and vortexed and then the absorbance of 35 μl triplicates was measured (at λ = 490 nm for fluorescein and λ = 555 nm for RhB) in a 384 well black plate by Biotek H1 synergy plate reader (purchased from Lumitron, Israel). For GFP, a 7.5 µl of 20 mM Tris buffer to a 7.5 μl GFP aliquot from the purchased stock solution. The 15 µl of GFP solution was added to 135 µl of peptide solution and was mixed in a 1.5 ml Eppendorf tube and pipetted. The concentration of GFP at the supernatant was measured via fluorescence. All experiments were performed in triplicate. The concentration of the supernatant solutions determinate by calibration curves. Imaging was made to 30 μl of uncentrifuged samples. Efficiency of encapsulation (%EE) was calculated using Eq. 2. 2 %EE=CT−Csup/CT"}, "[4]": {"experiment": "not given", "remark": "listed apart in the source"}}, "note": "No end group written: not given here."}
{"sequence": "WGRGRGRGWPGVGY [WGR-1]", "values": [{"measurement": "pH at which turbidity (LLPS) appears", "setting": "[1]; 8 mM peptide, mean of n=3", "value": 8.483}, {"measurement": "pH at which turbidity (LLPS) appears", "setting": "[1]; 8 mM peptide, replicate 1", "value": 8.43}, {"measurement": "pH at which turbidity (LLPS) appears", "setting": "[1]; 8 mM peptide, replicate 2", "value": 8.47}, {"measurement": "pH at which turbidity (LLPS) appears", "setting": "[1]; 8 mM peptide, replicate 3", "value": 8.55}, {"measurement": "pH at which turbidity (LLPS) appears", "setting": "[1]; 10 mM peptide, mean of n=3", "value": 7.88}, {"measurement": "pH at which turbidity (LLPS) appears", "setting": "[1]; 10 mM peptide, replicate 1", "value": 7.84}, {"measurement": "pH at which turbidity (LLPS) appears", "setting": "[1]; 10 mM peptide, replicate 2", "value": 7.86}, {"measurement": "pH at which turbidity (LLPS) appears", "setting": "[1]; 10 mM peptide, replicate 3", "value": 7.94}, {"measurement": "pH at which turbidity (LLPS) appears", "setting": "[1]; 15 mM peptide, mean of n=3", "value": 7.483}, {"measurement": "pH at which turbidity (LLPS) appears", "setting": "[1]; 15 mM peptide, replicate 1", "value": 7.45}, {"measurement": "pH at which turbidity (LLPS) appears", "setting": "[1]; 15 mM peptide, replicate 2", "value": 7.51}, {"measurement": "pH at which turbidity (LLPS) appears", "setting": "[1]; 15 mM peptide, replicate 3", "value": 7.49}, {"measurement": "pH at which turbidity (LLPS) appears", "setting": "[1]; 20 mM peptide, mean of n=3", "value": 7.12}, {"measurement": "pH at which turbidity (LLPS) appears", "setting": "[1]; 20 mM peptide, replicate 1", "value": 7.13}, {"measurement": "pH at which turbidity (LLPS) appears", "setting": "[1]; 20 mM peptide, replicate 2", "value": 7.08}, {"measurement": "pH at which turbidity (LLPS) appears", "setting": "[1]; 20 mM peptide, replicate 3", "value": 7.15}, {"measurement": "pH at which turbidity (LLPS) appears", "setting": "[1]; 30 mM peptide, mean of n=3", "value": 6.85}, {"measurement": "pH at which turbidity (LLPS) appears", "setting": "[1]; 30 mM peptide, replicate 1", "value": 6.82}, {"measurement": "pH at which turbidity (LLPS) appears", "setting": "[1]; 30 mM peptide, replicate 3", "value": 6.88}, {"measurement": "critical LLPS concentration", "setting": "[1]; tris buffer, lowest of 5-30 mM at which turbidity/droplets form", "value": 8, "unit": "mM"}, {"measurement": "Turbidity as asorbance at 350 nm", "setting": "[2]; peptide concentration 10 (mM)", "value": 0.3393}, {"measurement": "Turbidity as asorbance at 350 nm", "setting": "[2]; peptide concentration 20 (mM)", "value": 2.135}, {"measurement": "%EE", "setting": "[3]; replicate 1, given as fraction", "value": 0.888}, {"measurement": "%EE", "setting": "[3]; replicate 2, given as fraction", "value": 0.8098}, {"measurement": "%EE", "setting": "[3]; replicate 3, given as fraction", "value": 0.7632}, {"measurement": "Encapsulation efficiency (EE)", "setting": "[3]; 20 mM Tris + 0.2 M NaCl pH 8, supernatant absorbance 490 nm, mean of n=3, in percent", "value": 82.0333, "unit": "%"}, {"measurement": "differential NaCl-induced change (20 vs 5 mM), average", "value": 3.5, "unit": "Hz"}, {"measurement": "differential NaCl-induced change, largest (residue P10)", "setting": "[4]", "value": 5.5, "unit": "Hz"}]}
